Reference: US8618107B2 (Gilead Connecticut, Inc., priority 2010, dated 2013)

System: CD86 surface expression on CD19+/7AAD- mouse splenocytes stimulated with IgM
Experiment: CD86 Inhibition Assay
Format: cell-based
Conditions: Splenocyte; total mouse splenocytes (Balb/c), IgM stimulation 24 hr
Description: Following the 24 hr incubation, cells are transferred to conical bottom clear 96-well plates and pelleted by centrifugation at 1200×g×5 min. […] Cells are sorted on a BD FACSCalibur and gated on the CD19^+/7AAD^− population. The levels of CD86 surface expression on the gated population is measured versus test compound concentration.

| SMILES | EC50 |
| --- | --- |
| Cn1cc(-c2cc(F)cc(N3CCc4c(sc5c4CC(C)(C)C5)C3=O)c2CO)cc(Nc2cc3n(n2)CCN(C2COC2)C3)c1=O [Example 318, 10-[5-Fluoro-2-(hydroxymethyl)-3-(1-methyl-5-{[5-(oxetan-3-yl)-4H,5H,6H,7H-pyrazolo[1,5-a]pyrazin-2-yl]amino}-6-oxo-1,6-dihydropyridin-3-yl)phenyl]-4,4-dimethyl-7-thia-10-azatricyclo[6.4.0.0^2,6]dodeca-1(8),2(6)-dien-9-one] | 18 nM |
| Cn1cc(-c2cccc(N3CCn4c(cc5c4CCCC5)C3=O)c2CO)nc(Nc2cnn(C3CC3)c2)c1=O [Example 114, 2-(3-(6-(1-cyclopropyl-1H-pyrazol-4-ylamino)-4-methyl-5-oxo-4,5-dihydropyrazin-2-yl)-2-(hydroxymethyl)phenyl)-3,4,6,7,8,9-hexahydropyrazino[1,2-a]indol-1(2H)-one] | 188 nM |
| Cn1cc(-c2cc(F)cc(N3CCc4c(sc5c4CC(C)(C)C5)C3=O)c2CO)cc(Nc2ccc(C3CCN(C4COC4)CC3)cn2)c1=O [Example 299, 10-[5-Fluoro-2-(hydroxymethyl)-3-[1-methyl-5-({5-[1-(oxetan-3-yl)piperidin-4-yl]pyridine-2-yl}amino)-6-oxo-1,6-dihydropyridin-3-yl]phenyl]-4,4-dimethyl-7-thia-10-azatricyclo[6.4.0.0^2,6]dodeca-1(8),2(6)-dien-9-one] | 9 nM |
| CN1CCN(c2ccc(Nc3cc(-c4cc(F)cc(N5CCc6c(sc7c6CCCC7)C5=O)c4CO)cn(C)c3=O)nc2)CC1 [Example 212, 5-[5-Fluoro-2-(hydroxymethyl)-3-(1-methyl-5-{[5-(4-methylpiperazin-1-yl)pyridine-2-yl]amino}-6-oxo-1,6-dihydropyridin-3-yl)phenyl]-8-thia-5-azatricyclo[7.4.0.0^2,7]trideca-1(9),2(7)-dien-6-one] | 9 nM |
| Cn1cc(-c2cc(F)cc(N3CCc4c(sc5c4CCCC5)C3=O)c2CO)cc(Nc2ccc(N3CCOCC3)cn2)c1=O [Example 289, 2-(5-Fluoro-2-(hydroxymethyl)-3-(1-methyl-5-(5-morpholinopyridin-2-ylamino)-6-oxo-1,6-dihydropyridin-3-yl)phenyl)-3,4,5,6,7,8-hexahydrobenzothieno[2,3-c]pyridin-1(2H)-one] | 10 nM |
| CC(C)N(C)Cc1ccc(Nc2cc(-c3cc(F)cc(N4CCc5c(sc6c5CCCC6)C4=O)c3CO)cn(C)c2=O)nc1 [Example 277, 5-[5-Fluoro-2-(hydroxymethyl)-3-{1-methyl-5-[(5-{[methyl(propan-2-yl)amino]methyl}pyridine-2-yl)amino]-6-oxo-1,6-dihydropyridin-3-yl}phenyl]-8-thia-5-azatricyclo[7.4.0.0^2,7]trideca-1(9),2(7)-dien-6-one] | 28 nM |
| COc1nccc(Nc2cc(-c3cc(F)cc(N4CCn5c(cc6c5CC(C)(C)C6)C4=O)c3CO)cn(C)c2=O)n1 [Example 300] | 9 nM |
| Cn1cc(-c2cccc(N3CCn4c(cc5c4CCCC5)C3=O)c2CO)cc(Nc2cc3n(n2)CCN(C2COC2)C3)c1=O [Example 319, 2-(2-(Hydroxymethyl)-3-(1-methyl-5-(5-(oxetan-3-yl)-4,5,6,7-tetrahydropyrazolo[1,5-a]pyrazin-2-ylamino)-6-oxo-1,6-dihydropyridin-3-yl)phenyl)-3,4,6,7,8,9-hexahydropyrazino[1,2-a]indol-1(2H)-one] | 16 nM |
| CN1CCC(c2ccc(Nc3cc(-c4cc(F)cc(N5CCc6c(sc7c6CCCC7)C5=O)c4CO)cn(C)c3=O)nc2)C1 (stereo not drawn) [Example 308, 5-[5-Fluoro-2-(Hydroxymethyl)-3-(1-methyl-5-{[5-(1-methylpyrrolidin-3-yl)pyridine-2-yl]amino}-6-oxo-1,6-dihydropyridin-3-yl)phenyl]-8-thia-5-azatricyclo-[7.4.0.0^2,7]trideca-1(9),2(7)-dien-6-one] | 63 nM |
| Cn1cc(-c2cc(F)cc(N3CCc4c(sc5c4CCCC5)C3=O)c2CO)cc(Nc2ccncn2)c1=O [Example 115, 5-[5-Fluoro-2-(hydroxymethyl)-3-[1-methyl-6-oxo-5-(pyrimidin-4-ylamino)-1,6-dihydropyridin-3-yl]phenyl]-8-thia-5-azatricyclo[7.4.0.02,7]trideca-1(9),2(7)-dien-6-one] | 78 nM |

Target: Btk (Homo sapiens (Human), UniProt Q06187)
Sequence (Q06187 whole entry): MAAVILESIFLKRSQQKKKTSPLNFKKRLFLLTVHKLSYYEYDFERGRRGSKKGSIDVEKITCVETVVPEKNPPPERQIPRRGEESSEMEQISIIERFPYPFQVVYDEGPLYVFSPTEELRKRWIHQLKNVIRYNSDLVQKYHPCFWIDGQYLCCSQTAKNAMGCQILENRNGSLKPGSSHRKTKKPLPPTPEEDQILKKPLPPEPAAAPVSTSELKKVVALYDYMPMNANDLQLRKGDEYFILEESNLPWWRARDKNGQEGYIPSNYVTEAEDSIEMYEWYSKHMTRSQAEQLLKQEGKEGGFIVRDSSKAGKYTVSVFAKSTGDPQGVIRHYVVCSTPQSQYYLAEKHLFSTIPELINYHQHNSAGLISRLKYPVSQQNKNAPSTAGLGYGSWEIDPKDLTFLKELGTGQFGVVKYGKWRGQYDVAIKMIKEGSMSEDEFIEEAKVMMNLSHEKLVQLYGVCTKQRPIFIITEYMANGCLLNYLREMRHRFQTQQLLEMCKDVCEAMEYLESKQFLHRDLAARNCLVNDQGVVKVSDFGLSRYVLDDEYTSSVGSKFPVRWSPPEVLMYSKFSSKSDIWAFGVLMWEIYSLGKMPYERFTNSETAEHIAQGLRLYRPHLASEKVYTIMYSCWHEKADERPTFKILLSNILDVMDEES
Experiment: standard biochemical Btk Kinase Assay (Example 901)
Conditions: Table 1
Excerpt: Determination of IC50 values can be accomplished using conventional techniques known in the art. In general, an IC50 can be determined by measuring the activity of a given enzyme in the presence of a range of concentrations of the inhibitor under study. The experimentally obtained values of enzyme activity then are plotted against the inhibitor concentrations used. […] Analogously, other inhibitory concentrations can be defined through appropriate determinations of activity.

| SMILES | IC50 |
| --- | --- |
| Cn1cc(-c2cccc(N3CCn4c(cc5c4CCCC5)C3=O)c2CO)cc(Nc2cc(C3CC3)[nH]n2)c1=O [Example 106, 2-(3-(5-(5-cyclopropyl-1H-pyrazol-3-ylamino)-1-methyl-6-oxo-1,6-dihydropyridin-3-yl)-2-(hydroxymethyl)phenyl)-3,4,6,7,8,9-hexahydropyrazino[1,2-a]indol-1(2H)-one] | 1 nM |
| Cn1nc(Nc2cc(-c3cccc(N4CCc5c(sc6c5CCCC6)C4=O)c3CO)nn(C)c2=O)cc1C(C)(C)O [Example 119, 5-[2-(hydroxymethyl)-3-(5-{[5-(2-hydroxypropan-2-yl)-1-methyl-1H-pyrazol-3-yl]amino}-1-methyl-6-oxo-1,6-dihydropyridazin-3-yl)phenyl]-8-thia-5-azatricyclo[7.4.0.02,7]trideca-1(9),2(7)-dien-6-one] | 7 nM |
| Cn1cc(-c2cccc(N3CCc4c(sc5c4CCCC5)C3=O)c2CO)nc(Nc2cnn(CCO)c2)c1=O [Example 116, 5-[3-(6-{[1-(2-Hydroxyethyl)-1H-pyrazol-4-yl]amino}-4-methyl-5-oxo-4,5-dihydropyrazin-2-yl)-2-(hydroxymethyl)phenyl)-8-thia-5-azatricyclo[7.4.0.02,7]trideca-1(9),2(7)-dien-6-one] | 6 nM |
| Cc1c(-c2cc(Nc3cc4n(n3)CCN(C)C4)c(=O)[nH]n2)cccc1N1CCn2c(cc3c2CCCC3)C1=O [Example 101] | 2 nM |
| Cn1cc(-c2cccc(N3CCn4c(cc5c4CCCC5)C3=O)c2CO)cc(Nc2ccc(N3CCOCC3)cn2)c1=O [Example 107, 2-(2-(hydroxymethyl)-3-(1-methyl-5-(5-morpholinopyridin-2-ylamino)-6-oxo-1,6-dihydropyridin-3-yl)phenyl)-3,4,6,7,8,9-hexahydropyrazino[1,2-a]indol-1(2H)-one] | 10.1 nM |
| Cc1c(-c2cc(Nc3cc4n(n3)CCN(C)C4)c(=O)[nH]n2)cccc1N1CCn2c(cc3ccccc32)C1=O [Example 102] | 22.9 nM |
| Cc1c(-c2cc(Nc3cc4n(n3)CCN(C)C4)c(=O)n(C)n2)cccc1N1Cc2c(sc3ccccc23)C1=O [Example 103, 4-{2-Methyl-3-[1-methyl-5-({5-methyl-4H,5H,6H,7H-pyrazolo[1,5-a]pyrazin-2-yl}amino)-6-oxo-1,6-dihydropyridazin-3-yl]phenyl}-7-thia-4-azatricyclo[6.4.0.0^2,6]dodeca-1(8),2(6),9,11-tetraen-5-one] | 3200 nM |

Same assay, conditions: Table 2

| SMILES | IC50 |
| --- | --- |
| CN1CCC(c2ccc(Nc3nc(-c4cc(F)cc(N5CCn6c(cc7c6CC(C)(C)C7)C5=O)c4CO)cn(C)c3=O)cc2)CC1 [Example 294, 10-[5-Fluoro-2-(hydroxymethyl)-3-(4-methyl-6-{[4-(1-methylpiperidin-4-yl)phenyl]amino}-5-oxo-4,5-dihydropyrazin-2-yl)phenyl]-4,4-dimethyl-1,10-diazatricyclo[6.4.0.0^2,6]dodeca-2(6),7-dien-9-one] | 16 nM |
| Cn1cc(-c2cc(F)cc(N3CCn4c(cc5c4CCCC5)C3=O)c2CO)cc(Nc2cc3n(n2)CCOC3)c1=O [Example 149, 2-(3-(5-(6,7-Dihydro-4H-pyrazolo[5,1-c][1,4]oxazin-2-ylamino)-1-methyl-6-oxo-1,6-dihydropyridin-3-yl)-5-fluoro-2-(hydroxymethyl)phenyl)-3,4,6,7,8,9-hexahydropyrazino[1,2-a]indol-1(2H)-one] | 5 nM |
| Cn1cc(-c2cc(F)cc(N3CCn4c(cc5c4CC(C)(C)C5)C3=O)c2CO)cc(Nc2ccc(CN3CCOCC3)cn2)c1=O [Example 274, 10-[5-Fluoro-2-(hydroxymethyl)-3-(1-methyl-5-{[5-(morpholin-4-ylmethyl)pyridine-2-yl]amino}-6-oxo-1,6-dihydropyridin-3-yl)phenyl]-4,4-dimethyl-1,10-diazatricyclo[6.4.0.0^2,6]dodeca-2(6),7-dien-9-one] | 2.34 nM |
| Cn1cc(-c2cc(F)cc(N3CCn4c(cc5c4CCCC5)C3=O)c2CO)cc(Nc2ccc(C3CCN(C4COC4)CC3)cn2)c1=O [Example 265, 2-(5-Fluoro-2-(hydroxymethyl)-3-(1-methyl-5-(5-(1-(oxetan-3-yl)piperidin-4-yl)pyridin-2-ylamino)-6-oxo-1,6-dihydropyridin-3-yl)phenyl)-3,4,6,7,8,9-hexahydropyrazino[1,2-a]indol-1(2H)-one] | 2.8 nM |
| CN1CC(c2ccc(Nc3nc(-c4cc(F)cc(N5CCc6c(sc7c6CC(C)(C)C7)C5=O)c4CO)cn(C)c3=O)cc2)C1 [Example 298, 10-[5-fluoro-2-(hydroxymethyl)-3-(4-methyl-6-{[4-(1-methylazetidin-3-yl)phenyl]amino}-5-oxopyrazin-2-yl)phenyl]-4,4-dimethyl-7-thia-10-azatricyclo[6.4.0.0^2,6]dodeca-1(8),2(6)-dien-9-one] | 5.3 nM |
| CN(C)CCOc1ccc(Nc2cc(-c3cc(F)cc(N4CCn5c(cc6c5CCCC6)C4=O)c3CO)cn(C)c2=O)nc1 [Example 297, 2-(3-(5-(5-(2-(Dimethylamino)ethoxy)pyridin-2-ylamino)-1-methyl-6-oxo-1,6-dihydropyridin-3-yl)-5-fluoro-2-(hydroxymethyl)phenyl)-3,4,6,7,8,9-hexahydropyrazino[1,2-a]indol-1(2H)-one] | 4.2 nM |
| CN1CCC[C@@H]1c1ccc(Nc2cc(-c3cc(F)cc(N4CCn5c(cc6c5CC(C)(C)C6)C4=O)c3CO)cn(C)c2=O)nc1 [Example 291, 10-[5-Fluoro-2-(hydroxymethyl)-3-[1-methyl-5-({5-[(2R)-1-methylpyrrolidin-2-yl]pyridine-2-yl}amino)-6-oxo-1,6-dihydropyridin-3-yl]phenyl]-4,4-dimethyl-1,10-diazatricyclo[6.4.0.0^2,6]dodeca-2(6),7-dien-9-one] | 1.74 nM |
